Measurements from patent US20260166039A1 (SCHRÖDINGER, INC., priority 2022, published 2026).

molecular target: T1, Wee1 kinase domain (Homo sapiens, UniProt P30291); experiment: Wee1 Kinase Biochemical Assay (ADP-Glo); details: 1 nM Wee1 enzyme, 15 uM ATP, 4 hours at 25° C
T1 construct: Wee1 kinase domain was purchased from Carna (catalog #05-177); purchased Carna 05-177
Procedure: Wee1 Kinase Biochemical Assay Protocol
Wee1 kinase domain was purchased from Carna (catalog #05-177). Wee1 kinase activity was determined with Poly(Lys,Tyr 4:1) hydrobromide as a substrate (Sigma-Aldrich) and by measuring ADP production using the ADP-Glo Kinase Assay kit (Promega) following the manufacturer's instructions. The kinase reaction was performed using the following conditions:
Buffer: 40 mM Tris-HCl, 20 mM magnesium chloride, supplemented with 0.1 mg/mL bovine serum albumin and 2 mM DTT. The final reaction mix contained 1 nM Wee1 enzyme, 15 uM ATP, and 2 ng/mL Poly(Lys,Tyr 4:1) hydrobromide substrate. The reaction time was 4 hours at 25° C.
The ADP-Glo signal was measured using the Envision plate reader and the percentage inhibition of kinase activity calculated for each inhibitor tested. Percent inhibition of Wee1 kinase activity was calculated based on the following formula.
[formula] • SSample: the signal of compounds • SHigh Ctrl: the signal of high control (DMSO) • SLow Ctrl: the signal of low control (positive control Wee1 inhibitor at saturating concentration)

T1 sequence (P30291 299-569 limits assumed): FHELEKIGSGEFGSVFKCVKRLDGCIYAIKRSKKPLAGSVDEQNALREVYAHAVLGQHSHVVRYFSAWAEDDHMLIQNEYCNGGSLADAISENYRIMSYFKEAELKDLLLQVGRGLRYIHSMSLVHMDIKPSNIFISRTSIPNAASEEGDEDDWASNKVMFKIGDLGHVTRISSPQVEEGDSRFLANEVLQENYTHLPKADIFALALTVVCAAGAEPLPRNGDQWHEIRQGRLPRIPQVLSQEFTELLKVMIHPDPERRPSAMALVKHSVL

| IC50 | Structure (SMILES) |
| --- | --- |
| < 10 nM | CCn1ccc(Nc2ncc3c(n2)N(c2cccc(N=S(C)(C)=O)n2)[C@@H]2CC(C)(C)OC[C@]32C)n1 (single isomer, unassigned) [Example 830] |
| < 10 nM | CN1CCN(c2ccc(Nc3ncc4c(n3)N(c3ccc(=O)n(C)n3)[C@@H]3CC(C)(C)OC[C@]43C)cc2)CC1 (single isomer, unassigned) [Example 826] |

same assay, conditions: Wee1 kinase domain, 15 uM ATP, ADP-Glo

| IC50 | Structure (SMILES) |
| --- | --- |
| 100 to 1000 nM | CN1CCC(c2ccc(Nc3ncc4c(n3)N(c3cccc(N=S(C)(C)=O)n3)[C@H]3CC(C)(C)OC[C@@]43C)cc2F)CC1 (single isomer, unassigned) [Example 178] |
| 10 to 100 nM | CNCc1cccc(N2c3nc(Nc4ccc(N5CCN(C)CC5)cc4)ncc3[C@]3(C)COC(C)(C)C[C@H]23)n1 (single isomer, unassigned) [Example 93] |
| 100 to 1000 nM | [2H]C([2H])([2H])N1CCC(c2ccc(Nc3ncc4c(n3)N(c3cccc(N=S(C)(C)=O)n3)[C@H]3CC(C)(C)OC[C@@]43C)cc2)CC1 (single isomer, unassigned) [Example 161] |
| 100 to 1000 nM | C[C@H]1COC(=O)N1c1cccc(N2c3nc(Nc4ccc(OC5CCNCC5)nc4)ncc3[C@]3(C)COC(C)(C)C[C@H]23)n1 (single isomer, unassigned) [Example 324] |
| 10 to 100 nM | CN1CC(c2ccc(Nc3ncc4c(n3)N(c3cccc(N=S(C)(C)=O)n3)[C@H]3CC(C)(C)OC[C@@]43C)cc2)C1 (single isomer, unassigned) [Example 166] |
| 100 to 1000 nM | CNCc1cccc(N2c3nc(Nc4ccc5c(c4)C(=O)N(C)CC5(C)C)ncc3[C@]3(C)COC(C)(C)C[C@H]23)n1 (single isomer, unassigned) [Example 91] |
| 100 to 1000 nM | CN1CC(c2ccc(Nc3ncc4c(n3)N(c3cccc(N=S(C)(C)=O)n3)[C@H]3CC(C)(C)OC[C@@]43C)cc2F)C1 (single isomer, unassigned) [Example 185] |
| 10 to 100 nM | CNCc1cccc(N2c3nc(Nc4ccc([C@@H]5CNC(=O)C5)cc4)ncc3[C@]3(C)COC(C)(C)C[C@H]23)n1 (single isomer, unassigned) [Example 64] |
| < 10 nM | CNCc1cccc(N2c3nc(Nc4ccc(N5C(=O)CC[C@@H]5C)cc4)ncc3[C@@]3(C)COC(C)(C)C[C@@H]23)n1 (single isomer, unassigned) [Example 28] |
| 100 to 1000 nM | CNCc1cccc(N2c3nc(Nc4ccc(S(C)(=O)=O)cc4)ncc3[C@]3(C)COC(C)(C)C[C@H]23)n1 (single isomer, unassigned) [Example 33] |
| 100 to 1000 nM | CN1CC[C@@H](Oc2ccc(Nc3ncc4c(n3)N(c3cccc(N=S(C)(C)=O)n3)[C@H]3CC(C)(C)OC[C@@]43C)cc2)C1 (single isomer, unassigned) [Example 160] |
| 10 to 100 nM | CN1CCC[C@H](n2cc(Nc3ncc4c(n3)N(c3cccc(N=S(C)(C)=O)n3)[C@H]3CC(C)(C)OC[C@@]43C)cn2)C1 (single isomer, unassigned) [Example 200] |
| 10 to 100 nM | CC1(C)C[C@H]2N(c3cccc(N=S(C)(C)=O)n3)c3nc(Nc4ncccc4F)ncc3[C@@]2(C)CO1 (single isomer, unassigned) [Example 368] |
| 100 to 1000 nM | C[C@H]1COC(=O)N1c1cccc(N2c3nc(Nc4ccc([C@H]5CCNC5)nc4)ncc3[C@]3(C)COC(C)(C)C[C@H]23)n1 (single isomer, unassigned) [Example 258] |
| 10 to 100 nM | CNCc1cccc(N2c3nc(Nc4ccc(N5CCOCC5)c(C)c4)ncc3[C@]3(C)COC(C)(C)C[C@H]23)n1 (single isomer, unassigned) [Example 25] |
| 10 to 100 nM | Cc1cc(Nc2ncc3c(n2)N(c2cccc(N4C(=O)OC[C@@H]4C)n2)[C@H]2CC(C)(C)OC[C@@]32C)ccc1O[C@H]1CCNC1 (single isomer, unassigned) [Example 338] |
| 10 to 100 nM | C[C@H]1COC(=O)N1c1cccc(N2c3nc(Nc4ccc(C5CCN(C)CC5)cc4)ncc3[C@]3(C)COC(C)(C)C[C@H]23)n1 (single isomer, unassigned) [Example 250] |
| 10 to 100 nM | CN1CC[C@](C)(c2ccc(Nc3ncc4c(n3)N(c3cccc(N=S(C)(C)=O)n3)[C@H]3CC(C)(C)OC[C@@]43C)cc2)C1 (single isomer, unassigned) [Example 167] |

same assay, conditions: class symbols; 1 nM Wee1 enzyme, 15 uM ATP, 4 hours at 25° C.

| IC50 | Structure (SMILES) |
| --- | --- |
| < 10 nM | Cn1ccc(Nc2ncc3c(n2)N(c2cccc(N=S(C)(C)=O)n2)[C@@H]2CC(C)(C)OC[C@]32C)n1 (single isomer, unassigned) [Example 513] |
| 100 to 1000 nM | CN[C@H](C)c1cc(C)nc(N2c3nc(Nc4ccc(N5CCOCC5)cc4)ncc3[C@]3(C)COC(C)(C)C[C@H]23)c1 (single isomer, unassigned) [Example 558] |
| 100 to 1000 nM | CC1(C)C[C@@H]2N(c3cccc(N4CCCC4=O)n3)c3nc(Nc4ccc(O[C@H]5CCNC5)cc4)ncc3[C@]2(C)CO1 [Example 621, 1-(6-((4bS,8aS)-4b,7,7-trimethyl-2-((4-(((S)-pyrrolidin-3-yl)oxy)phenyl)amino)-4b,7,8,8a-tetrahydropyrano[3′,4′:4,5]pyrrolo[2,3-d]pyrimidin-9(5H)-yl)pyridin-2-yl)pyrrolidin-2-one] |
| 100 to 1000 nM | C[C@H]1CCC(=O)N1c1cccc(N2c3nc(Nc4ccc(N5CCN(C)CC5)cc4)ncc3[C@]3(C)COC(C)(C)C[C@H]23)n1 (single isomer, unassigned) [Example 582] |
| 10 to 100 nM | CN1C[C@H]2C[C@@H]1CN2c1ccc(Nc2ncc3c(n2)N(c2cccc(N4CCOC4=O)n2)[C@H]2CC(C)(C)OC[C@@]32C)cc1 (single isomer, unassigned) [Example 592] |
| < 10 nM | CN1CC2(C1)CN(c1ccc(Nc3ncc4c(n3)N(c3cccc(N5C(=O)OCC5(C)C)n3)[C@@H]3CC(C)(C)OC[C@]43C)cc1)C2 (single isomer, unassigned) [Example 785] |
| 10 to 100 nM | CC1(C)C[C@@H]2N(c3cccc(N4CCOC4=O)n3)c3nc(Nc4ccc([C@@H]5CNC[C@@H]5F)cc4)ncc3[C@]2(C)CO1 [Example 674, 3-(6-((4bS,8aS)-2-((4-((3R,4R)-4-fluoropyrrolidin-3-yl)phenyl)amino)-4b,7,7-trimethyl-4b,7,8,8a-tetrahydropyrano[3′,4′:4,5]pyrrolo[2,3-d]pyrimidin-9(5H)-yl)pyridin-2-yl)oxazolidin-2-one] |
| < 10 nM | CC1(C)C[C@H]2N(c3cccc([C@H]4CCCN4)n3)c3nc(Nc4ccc(N5CCOCC5)cc4)ncc3[C@@]2(C)CO1 (single isomer, unassigned) [Example 528] |
| 10 to 100 nM | CC1(C)C[C@@H]2N(c3cccc(C(C)(C)N)n3)c3nc(Nc4ccc(N5CCOCC5)cc4)ncc3[C@]2(C)CO1 (single isomer, unassigned) [Example 568] |
| 100 to 1000 nM | CC1(C)C[C@@H]2N(c3cccc(C4(F)CNC4)n3)c3nc(Nc4ccc(N5CCOCC5)cc4)ncc3[C@]2(C)CO1 (single isomer, unassigned) [Example 546] |
| ≥ 1000 nM | CNCc1cccc(N2c3nc(Nc4ccc(=O)n(C)c4)ncc3[C@]3(C)COC(C)(C)C[C@H]23)n1 (single isomer, unassigned) [Example 461] |
| 10 to 100 nM | CC1(C)C[C@@H]2N(c3cccc([C@H]4CCNC4)n3)c3nc(Nc4ccc(N5CCOCC5)cc4)ncc3[C@]2(C)CO1 (single isomer, unassigned) [Example 540] |
| 100 to 1000 nM | CN[C@H](C)c1cccc(N2c3nc(Nc4ccc(N5CCOCC5)cc4)ncc3[C@]3(C)COC(C)(C)C[C@H]23)n1 (single isomer, unassigned) [Example 550] |
| 100 to 1000 nM | CC1(C)C[C@@H]2N(c3cccc([C@@H]4CCCN4)n3)c3nc(Nc4ccc(N5CCOCC5)cc4)ncc3[C@]2(C)CO1 (single isomer, unassigned) [Example 525] |
| < 10 nM | CCn1cc(Nc2ncc3c(n2)N(c2cccc(N=S(C)(C)=O)n2)[C@@H]2CC(C)(C)OC[C@]32C)nn1 (single isomer, unassigned) [Example 516] |
| 10 to 100 nM | CC1(C)C[C@@H]2N(c3cccc(N4CCOC4=O)n3)c3nc(Nc4ccc([C@]5(C)CCNC5)cc4)ncc3[C@]2(C)CO1 [Example 665, 3-(6-((4bS,8aS)-46,7,7-trimethyl-2-((4-((S)-3-methylpyrrolidin-3-yl)phenyl)amino)-4b,7,8,8a-tetrahydropyrano[3′,4′:4,5]pyrrolo[2,3-d]pyrimidin-9(5H)-yl)pyridin-2-yl)oxazolidin-2-one] |
| < 10 nM | CN1CC2(C1)CN(c1ccc(Nc3ncc4c(n3)N(c3cccc(N5C(=O)CCC5(C)C)n3)[C@@H]3CC(C)(C)OC[C@]43C)cc1)C2 (single isomer, unassigned) [Example 786] |
| 100 to 1000 nM | CN[C@@H](C)c1cccc(N2c3nc(Nc4ccc(N5C[C@H]6C[C@@H]5CO6)cc4)ncc3[C@]3(C)COC(C)(C)C[C@H]23)n1 (single isomer, unassigned) [Example 578] |
| 100 to 1000 nM | CNCc1cccc(N2c3nc(Nc4cnnc(C)c4)ncc3[C@]3(C)COC(C)(C)C[C@H]23)n1 (single isomer, unassigned) [Example 477] |
| 100 to 1000 nM | CN1C[C@@H]2C[C@H]1CN2c1ccc(Nc2ncc3c(n2)N(c2cccc(C(C)(C)O)n2)[C@H]2CC(C)(C)OC[C@@]32C)cc1F (single isomer, unassigned) [Example 432] |
